According to patent US8791102B2, “Acetanilide sphingosine-1-phosphate receptor antagonists” (Exelixis, Inc., priority 2008, dated 2014):

Target: T1, human S1P1 receptors (Homo sapiens, UniProt P21453)
T1 construct: host or cells: HEK293
Test: S1P1R antagonist assay (fluorescent membrane potential dye, cAMP readout)
Assay type: cell-based
Conditions: HEK293 cells expressing human S1P1 receptors and CNG channel; 500 nM NECA; S1P1R agonist 10 nM; 90 minutes; read-out: EC50 or IC50 value

T1 sequence (P21453 whole entry): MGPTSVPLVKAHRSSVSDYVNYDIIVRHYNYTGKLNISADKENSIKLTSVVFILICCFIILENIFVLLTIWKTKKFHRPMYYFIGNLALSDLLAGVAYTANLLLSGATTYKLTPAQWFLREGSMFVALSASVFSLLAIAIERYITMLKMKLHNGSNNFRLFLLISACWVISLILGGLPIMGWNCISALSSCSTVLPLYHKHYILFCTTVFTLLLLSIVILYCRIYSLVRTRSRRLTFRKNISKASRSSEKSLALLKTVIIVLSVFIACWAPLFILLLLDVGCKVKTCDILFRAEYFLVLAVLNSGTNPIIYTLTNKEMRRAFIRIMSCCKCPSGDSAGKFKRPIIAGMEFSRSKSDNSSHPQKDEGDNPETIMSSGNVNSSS

Structure (SMILES) | IC50 [nM]
O=C(CN1CCN(c2ncccn2)CC1)N[C@@H](COCc1ccccc1)C(=O)Nc1ccc(Oc2ccc(F)cc2)cc1 [Compound 41, (S)-3-(benzyloxy)-N-(4-(4-fluorophenoxy)phenyl)-2-(2-(4-(pyrimidin-2-yl)piperazin-1-yl)acetamido)propanamide] | > 1000
O=C(Cc1cccs1)N[C@@H](COCc1ccccc1)C(=O)Nc1ccc(Oc2ccccc2)cc1 [Compound 198, (S)-2-(2-(thien-2-yl)acetamido)-3-benzyloxy-N-(4-phenoxyphenyl)propanamide] | 300 to 1000
O=C(Cn1cncn1)N[C@@H](COCc1ccccc1Cl)C(=O)Nc1ccc(Oc2ccc(F)cc2)cc1 [Compound 181, (S)-2-(2-(1H-1,2,4-triazol-1-yl)acetamido)-3-(2-chlorobenzyloxy)-N-(4-(4-fluorophenoxy)phenyl)propanamide] | ≤ 300
Cc1cc(C(=O)NC(COCc2ccccc2)C(=O)Nc2ccc(Oc3ccccc3)cc2)ccc1Cl (stereo not drawn) [Compound 379, 4-chloro-3-methyl-N-(2-oxo-1-{[(phenylmethyl)oxy]methyl}-2-{[4-(phenyloxy)phenyl]amino}ethyl)benzamide] | > 1000
O=C(Cc1ccccc1)N[C@@H](COCc1ccccc1)C(=O)Nc1ccc(Oc2ccc(F)cc2)cc1 [Compound 249, (S)-3-(benzyloxy)-N-(4-(4-fluorophenoxy)phenyl)-2-(2-phenylacetamido)propanamide] | 300 to 1000
O=C(Nc1ccc(Oc2ccc(F)cc2)cc1)[C@@H]1C[C@@H](Cc2cccc(Cl)c2)CN1C(=O)Cn1nccn1 [Compound 268, (2S,4R)-1-(2-(2H-1,2,3-triazol-2-yl)acetyl)-4-(3-chlorobenzyl)-N-(4-(4-fluorophenoxy)phenyl)pyrrolidine-2-carboxamide] | ≤ 300
O=C(NC(COCc1ccccc1)C(=O)Nc1ccc(Oc2ccccc2)cc1)c1ccc([N+](=O)[O-])o1 (stereo not drawn) [Compound 326, 5-nitro-N-(2-oxo-1-{[(phenylmethyl)oxy]methyl}-2-{[4-(phenyloxy)phenyl]amino}ethyl)furan-2-carboxamide] | ≤ 300
O=C(Nc1ccc(Oc2ccc(F)cc2)cc1)[C@@H]1C[C@@H](Cc2ccccc2)CN1C(=O)Cc1c(Cl)cccc1Cl [Compound 119, (2S,4R)-4-benzyl-1-(2-(2,6-dichlorophenyl)acetyl)-N-(4-(4-fluorophenoxy)phenyl)pyrrolidine-2-carboxamide] | ≤ 300
O=C(CN1CCN(c2ccccn2)CC1)N[C@@H](COCc1ccccc1)C(=O)Nc1ccc(Oc2ccc(F)cc2)cc1 [Compound 126, (S)-3-(benzyloxy)-N-(4-(4-fluorophenoxy)phenyl)-2-(2-(4-(pyridin-2-yl)piperazin-1-yl)acetamido)propanamide] | > 1000
O=C(Nc1ccc(Oc2ccc(F)cc2)cc1)[C@@H]1C[C@@H](Cc2ccccc2)CN1C(=O)Cn1cncn1 [Compound 140, (2S,4R)-1-(2-(1H-1,2,4-triazol-1-yl)acetyl)-4-benzyl-N-(4-(4-fluorophenoxy)phenyl)pyrrolidine-2-carboxamide] | ≤ 300
O=C(Cn1cncn1)N[C@@H](COCc1ccccc1)C(=O)Nc1ccc(Sc2ccc(F)cc2)cc1 [Compound 178, (S)-2-(2-(1H-1,2,4-triazol-1-yl)acetamido)-3-(benzyloxy)-N-(4-(4-fluorophenylthio)phenyl)propanamide] | ≤ 300
COCC(=O)N1C[C@H](Cc2ccccc2)C[C@H]1C(=O)Nc1ccc(Oc2ccc(F)cc2)cc1 [Compound 122, (2S,4R)-4-benzyl-N-(4-(4-fluorophenoxy)phenyl)-1-(2-methoxyacetyl)pyrrolidine-2-carboxamide] | ≤ 300
O=C(Cc1cccs1)NC(COCc1ccccc1)C(=O)Nc1ccc(Oc2ccccc2)cc1 (stereo not drawn) [Compound 293, N-(2-oxo-1-{[(phenylmethyl)oxy]methyl}-2-{[4-(phenyloxy)phenyl]amino}ethyl)thien-2-ylacetamide] | > 1000
O=C(CCC1CCCCC1)NC(COCc1ccccc1)C(=O)Nc1ccc(Oc2ccccc2)cc1 (stereo not drawn) [Compound 317, N-(2-oxo-1-{[(phenylmethyl)oxy]methyl}-2-{[4-(phenyloxy)phenyl]amino}ethyl)-3-cyclohexylpropanamide] | > 1000

The next lines start with the values.

IC50 [nM] | Structure (SMILES)
> 1000 | COc1ccc(CCC(=O)NC(COCc2ccccc2)C(=O)Nc2ccc(Oc3ccccc3)cc2)cc1 (stereo not drawn) [Compound 304, N-(2-oxo-1-{[(phenylmethyl)oxy]methyl}-2-{[4-(phenyloxy)phenyl]amino}ethyl)-3-(4-methoxyphenyl)propanamide]
> 1000 | CCN(CC)C1CCN(CC(=O)N[C@@H](COCc2ccccc2)C(=O)Nc2ccc(Oc3ccc(F)cc3)cc2)C1 (stereo partly drawn) [Compound 109, (2S)-3-(benzyloxy)-2-(2-(3-(diethylamino)pyrrolidin-1-yl)acetamido)-N-(4-(4-fluorophenoxy)phenyl)propanamide]
> 1000 | O=C(NC(COCc1ccccc1)C(=O)Nc1ccc(Oc2ccccc2)cc1)c1ccc2[nH]cnc2c1 (stereo not drawn) [Compound 342, N-(2-oxo-1-{[(phenylmethyl)oxy]methyl}-2-{[4-(phenyloxy)phenyl]amino}ethyl)-1H-benzimidazole-5-carboxamide]
≤ 300 | COCCN1CCN(CC(=O)N2C[C@H](Cc3ccccc3)C[C@H]2C(=O)Nc2ccc(Oc3ccc(F)cc3)cc2)CC1 [Compound 100, (2S,4R)-4-benzyl-N-(4-(4-fluorophenoxy)phenyl)-1-(2-(4-(2-methoxyethyl)piperazin-1-yl)acetyl)pyrrolidine-2-carboxamide]
300 to 1000 | O=C(CCCc1cccs1)NC(COCc1ccccc1)C(=O)Nc1ccc(Oc2ccccc2)cc1 (stereo not drawn) [Compound 325, N-(2-oxo-1-{[(phenylmethyl)oxy]methyl}-2-{[4-(phenyloxy)phenyl]amino}ethyl)-4-(2-thienyl)butanamide]
≤ 300 | O=C(Cc1c[nH]cn1)N[C@@H](COCc1ccccc1)C(=O)Nc1cccc(Oc2ccccc2)c1 [Compound 243, (S)-2-(2-(1H-imidazol-4-yl)acetamido)-3-(benzyloxy)-N-(3-phenoxyphenyl)propanamide]
> 1000 | O=C(NC(COCc1ccccc1)C(=O)Nc1ccc(Oc2ccccc2)cc1)c1cnc2ccccc2c1 (stereo not drawn) [Compound 350, N-(2-oxo-1-{[(phenylmethyl)oxy]methyl}-2-{[4-(phenyloxy)phenyl]amino}ethyl)quinoline-3-carboxamide]
≤ 300 | O=C(Cc1c[nH]cn1)N[C@@H](COCc1ccccc1)C(=O)Nc1ccc(OCc2ccccc2)cc1 [Compound 211, (S)-2-(2-(1H-imidazol-4-yl)acetamido)-3-(benzyloxy)-N-(4-(benzyloxy)phenyl)propanamide]
> 1000 | O=C(NC(COCc1ccccc1)C(=O)Nc1ccc(Oc2ccccc2)cc1)c1ccccc1-n1cccc1 (stereo not drawn) [Compound 314, N-(2-oxo-1-{[(phenylmethyl)oxy]methyl}-2-{[4-(phenyloxy)phenyl]amino}ethyl)-2-(1H-pyrrol-1-yl)benzamide]
≤ 300 | CCOCC(=O)N1C[C@H](Cc2ccccc2)C[C@H]1C(=O)Nc1ccc(Oc2ccc(F)cc2)cc1 [Compound 121, (2S,4R)-4-benzyl-1-(2-ethoxyacetyl)-N-(4-(4-fluorophenoxy)phenyl)pyrrolidine-2-carboxamide]
> 1000 | O=C(CCCCCN1C(=O)C=CC1=O)NC(COCc1ccccc1)C(=O)Nc1ccc(Oc2ccccc2)cc1 (stereo not drawn) [Compound 15, N-(3-(benzyloxy)-1-oxo-1-(4-phenoxyphenylamino)propan-2-yl)-6-(2,5-dioxo-2,5-dihydro-1H-pyrrol-1-yl)hexanamide]
> 1000 | O=C(NC(COCc1ccccc1)C(=O)Nc1ccc(Oc2ccccc2)cc1)C(=O)c1ccccc1 (stereo not drawn) [Compound 324, N-(2-oxo-1-{[(phenylmethyl)oxy]methyl}-2-{[4-(phenyloxy)phenyl]amino}ethyl)-2-oxo-2-phenylacetamide]
≤ 300 | O=C(Nc1ccc(Oc2ccc(F)cc2)cc1)[C@@H]1C[C@@H](Cc2ccc(Cl)cc2Cl)CN1C(=O)Cn1cncn1 [Compound 180, (2S,4R)-1-(2-(1H-1,2,4-triazol-1-yl)acetyl)-4-(2,4-dichlorobenzyl)-N-(4-(4-fluorophenoxy)phenyl)pyrrolidine-2-carboxamide]
≤ 300 | O=C(Cc1c[nH]cn1)N[C@@H](COCc1ccc(F)cc1)C(=O)Nc1ccc(Oc2ccc(F)cc2)cc1 [Compound 133, (S)-2-(2-(1H-imidazol-5-yl)acetamido)-3-(4-fluorobenzyloxy)-N-(4-(4-fluorophenoxy)phenyl)propanamide]
≤ 300 | O=C(Cc1c[nH]cn1)N[C@@H](COCc1ccc(F)cc1)C(=O)Nc1ccc(Oc2ccc(Br)cc2)cc1 [Compound 168, (S)-2-(2-(1H-imidazol-5-yl)acetamido)-N-(4-(4-bromophenoxy)phenyl)-3-(4-fluorobenzyloxy)propanamide]
≤ 300 | O=C(CCC(=O)N1C[C@H](Cc2ccccc2)C[C@H]1C(=O)Nc1ccc(Oc2ccc(F)cc2)cc1)c1cccs1 [Compound 91, (2S,4R)-4-benzyl-N-(4-(4-fluorophenoxy)phenyl)-1-(4-oxo-4-(thien-2-yl)butanoyl)pyrrolidine-2-carboxamide]
300 to 1000 | COc1ccc(N2CCN(CC(=O)N[C@@H](COCc3ccccc3)C(=O)Nc3ccc(Oc4ccc(F)cc4)cc3)CC2)cc1 [Compound 224, (S)-3-(benzyloxy)-N-(4-(4-fluorophenoxy)phenyl)-2-(2-(4-(4-methoxyphenyl)piperazin-1-yl)acetamido)propanamide]
≤ 300 | O=C(Nc1ccc(Oc2ccc(F)cc2)cc1)[C@@H]1C[C@@H](Cc2ccccc2Cl)CN1C(=O)Cn1nccn1 [Compound 56, (2S,4R)-1-(2-(2H-1,2,3-triazol-2-yl)acetyl)-4-(2-chlorobenzyl)-N-(4-(4-fluorophenoxy)phenyl)pyrrolidine-2-carboxamide]
> 1000 | O=C(Cc1cccc2ccccc12)NC(COCc1ccccc1)C(=O)Nc1ccc(Oc2ccccc2)cc1 (stereo not drawn) [Compound 375, N-(2-oxo-1-{[(phenylmethyl)oxy]methyl}-2-{[4-(phenyloxy)phenyl]amino}ethyl)-2-(naphthalen-1-yl)acetamide]
